The results in this text go back to ChEMBL document CHEMBL4602730, “In Vitro and in Vivo Evaluation of Membrane-Active Flavone Amphiphiles: Semisynthetic Kaempferol-Derived Antimicrobials against Drug-Resistant Gram-Positive Bacteria” (J Med Chem, 2020).

The term MIC denotes the lowest concentration that inhibits growth of the organism. Usually HC50 stands for the concentration that lyses half of the red blood cells. The low end stands for stronger haemolysis, the high end for weaker haemolysis. For orientation: CC50 means the concentration that lowers cell viability or growth by half.

Values after ≈ are worked out from the molar mass of the structure shown. Active and inactive are the calls of the source. The calls are words filed in the database; no cut-off is given here.

Data set [1] relates to Staphylococcus aureus. Nature of the data set: Antibacterial activity against Staphylococcus aureus ATCC 29213 assessed as suppression of bacterial re-growth at 4 to 8 times MIC incubated for 0.5 to 24 hrs followed by re-plating of cultures and measured after 24 hrs by time kill study relative to control. It is filed as functional, organism-based.
The test system of data set [2] is Staphylococcus aureus. Nature of the data set: Induction of cell surface disruption in Staphylococcus aureus ATCC 29213 at 8 times MIC incubated for 2 hrs by scanning electron microscopy. It is filed as functional, organism-based.
Data set [3] concerns Staphylococcus aureus. As to the kind of experiment: Induction of cytoplasmic membrane permeabilization in Staphylococcus aureus ATCC 29213 at 1 to 8 times MIC by SYTOX green dye based fluorescence assay. It is filed as functional, organism-based.
The subject of the next data set is Pseudomonas aeruginosa. Nature of the data set: Antibacterial activity against Pseudomonas aeruginosa assessed as inhibition of bacterial growth incubated for 24 hrs by broth microdilution method. It is filed as functional. Background: Dilution methods test growth across graded concentrations, often in twofold steps.
A short description of data set [4]: Induction of hemolysis in rabbit RBC incubated for 1 hr. It is filed as cell-based, Oryctolagus cuniculus, Erythrocyte. As to conditions: rabbit red blood cells (erythrocytes).
The subject of data set [5] is Staphylococcus aureus. As to the kind of experiment: Antibacterial activity against Staphylococcus aureus ATCC 29213 assessed as bacterial cell killing at 4 times MIC incubated for 1 hrs followed by re-plating of cultures and measured after 24 hrs by time kill study relative to control. It is filed as functional.
In data set [6] the test system is Staphylococcus aureus. As to the kind of experiment: Resistance index, ratio of MIC for antibacterial activity against Staphylococcus aureus ATCC 29213 passed over 19 cycles in presence of compound for period of 19 consecutive days by broth microdilution method to MIC for antibacterial activity against Staphylococcus aureus ATCC 29213. It is filed as functional.

Data set [7] has as its system Staphylococcus aureus. Nature of the data set: Antibacterial activity against Staphylococcus aureus ATCC 29213 assessed as induction of bacterial killing at 8 times MIC incubated for 0.5 hrs followed by re-plating of cultures and measured after 24 hrs by time kill study relative to control. It is filed as functional.
Data set [8] can be described thus: Cytotoxicity in mouse corneal epithelial cells assessed as cell viability at 32 times MIC incubated for 24 hrs by CCK8 assay relative to control. As to conditions: read-out: Activity. It is filed as cell-based. (In general: Formazan colour is commonly taken as a measure of viable cells.)
Data set [9] has as its system Staphylococcus aureus. Nature of the data set: Antibacterial activity against Staphylococcus aureus ATCC 29213 assessed as inhibition of bacterial growth incubated for 24 hrs by broth microdilution method. It is filed as functional. As to conditions: ATCC 29213, 24 h.
For data set [10], the system named is Staphylococcus aureus. Nature of the data set: Induction of cytoplasmic membrane permeabilization in methicillin-resistant Staphylococcus aureus NCTC 10442 at 1 to 8 times MIC by SYTOX green dye based fluorescence assay. It is filed as functional, organism-based.
The test system of data set [11] is Staphylococcus aureus. As to the kind of experiment: Induction of bacterial cell membrane integrity loss in Staphylococcus aureus ATCC 29213 incubated for 2 hrs propidium iodide and SYTO9 dye based LIVE/DEAD bacterial viability assay. It is filed as functional, organism-based.
In data set [12] the test system is Staphylococcus aureus. Nature of the data set: Antibacterial activity against Staphylococcus aureus ATCC 29213 assessed as induction of bacterial killing at 4 times MIC incubated for 1 hrs followed by re-plating of cultures and measured after 24 hrs by time kill study relative to control. It is filed as functional.
The nature of data set [13]: Cytotoxicity in human MDA-MB-231 cells assessed as cell viability at 32 times MIC incubated for 24 hrs by CCK8 assay relative to control. It is filed as cell-based. Particulars: read-out: Activity.
Data set [14] relates to Staphylococcus aureus. Nature of the data set: Antibacterial activity against Staphylococcus aureus ATCC 29213 infected in C57BL6 mouse assessed as reduction in bacterial count at 0.5% treated topically 4 times per day for 3 days starting from 1 day after infection relative to control. It is filed as functional.
The test system of data set [15] is Staphylococcus aureus. As to the kind of experiment: Antibacterial activity against methicillin-resistant Staphylococcus aureus NCTC 10442 assessed as inhibition of bacterial growth incubated for 24 hrs by broth microdilution method. Particulars: NCTC 10442, 24 h. It is filed as functional.
In the next data set the test system is Escherichia coli. Nature of the data set: Antibacterial activity against Escherichia coli assessed as inhibition of bacterial growth incubated for 24 hrs by broth microdilution method. It is filed as functional.
Data set [16] in a line: Cytotoxicity in human MDA-MB-231 cells assessed as reduction in cell viability incubated for 24 hrs by CCK8 assay. It is filed as cell-based.
Data set [17] deals with Staphylococcus aureus. As to the kind of experiment: Antibacterial activity against methicillin-resistant Staphylococcus aureus N315 assessed as inhibition of bacterial growth incubated for 24 hrs by broth microdilution method. It is filed as functional. As to conditions: N315, 24 h.
Data set [18] is described as follows: Cytotoxicity in human MDA-MB-231 cells assessed as cell viability at 16 times MIC incubated for 24 hrs by CCK8 assay relative to control. It is filed as cell-based. As to conditions: read-out: Activity.
Data set [19] can be described thus: Cytotoxicity in mouse corneal epithelial cells assessed as cell viability at 16 times MIC incubated for 24 hrs by CCK8 assay relative to control. It is filed as cell-based. As to conditions: read-out: Activity.
Data set [20] relates to Staphylococcus aureus. Nature of the data set: Antibacterial activity against Staphylococcus aureus ATCC 29213 assessed as induction of bacterial killing at 4 times MIC incubated for 8 hrs followed by re-plating of cultures and measured after 24 hrs by time kill study relative to control. It is filed as functional.

As for `COC(=O)[C@H](CCCNC(=N)N)NC(=O)COc1c(-c2ccc(OCC=C(C)C)cc2)oc2cc(OCC=C(C)C)cc(OCC(=O)N[C@@H](CCCNC(=N)N)C(=O)OC)c2c1=O`, the result in the data set with Staphylococcus aureus [1], in the data set with Staphylococcus aureus [2], in the data set with Staphylococcus aureus [3], in the data set on Staphylococcus aureus [10] and in the data set on Staphylococcus aureus [11] was Active. In addition, the minimal inhibitory concentration (MIC) in the data set with Pseudomonas aeruginosa is 12.5 to 25 µg/mL (≈ 14.2 to 28.4 µM); in the data set on Staphylococcus aureus [9], 1.8 µM (≈ 1.58 µg/mL); with Staphylococcus aureus [15] it was 1.8 µM (≈ 1.58 µg/mL); in the data set on Escherichia coli it was 12.5 to 25 µg/mL (≈ 14.2 to 28.4 µM); in the data set on Staphylococcus aureus [17], 1.8 µM (≈ 1.58 µg/mL). Further, the 50% haemolytic concentration (HC50) at 1 h in [4] is more than 228 µM. Besides, the Activity entry is reported as “>=99.9%” with Staphylococcus aureus [5] and 3.28 log10CFU in the data set on Staphylococcus aureus [14]. Besides, the Ratio entry with Staphylococcus aureus [6] is reported as “<=4”. Also, the LCK in the data set with Staphylococcus aureus [7] was 3.22; in the data set with Staphylococcus aureus [12], 3.21. Further, the viability at 24 h, 32 times MIC in [8] is 70.1%; in data set [13] it was 75%. In data set [16], the CC50 at 24 h was more than 50 µg/mL.

With `COC(=O)[C@H](CCCNC(=N)N)NC(=O)COc1c(-c2ccc(OCC=C(C)C)cc2)oc2cc(OCC=C(C)C)cc(O)c2c1=O`, the result with Staphylococcus aureus [1], in the data set with Staphylococcus aureus [2], in the data set with Staphylococcus aureus [3], with Staphylococcus aureus [10] and in the data set on Staphylococcus aureus [11] was Active. The MIC result with Pseudomonas aeruginosa and in the data set with Escherichia coli was “inactive” in each case. This molecule also displayed an HC50 at 1 h in data set [4] of 107 µM. Also, the Activity result with Staphylococcus aureus [5] is listed as “>=99.9%”. The Ratio result in the data set with Staphylococcus aureus [6] is given as “<=4”. The LCK came to 3.78 with Staphylococcus aureus [7] and 3.19 with Staphylococcus aureus [12]. Also, the minimal inhibitory concentration (MIC) with Staphylococcus aureus [9] was 4.8 µM (≈ 3.12 µg/mL); with Staphylococcus aureus [15], 4.8 µM (≈ 3.12 µg/mL); in the data set with Staphylococcus aureus [17] it was 2.4 µM (≈ 1.56 µg/mL). Moreover, the viability at 24 h, 16 times MIC in data set [18] is 67.3%; in [19], 62.1%. Besides, in [16], the cytotoxic concentration (CC50) at 24 h was more than 50 µg/mL.

On to `CN[C@H](CC(C)C)C(=O)N[C@H]1C(=O)N[C@@H](CC(N)=O)C(=O)N[C@H]2C(=O)N[C@H]3C(=O)N[C@H](C(=O)N[C@H](C(=O)O)c4cc(O)cc(O)c4-c4cc3ccc4O)[C@H](O)c3ccc(c(Cl)c3)Oc3cc2cc(c3O[C@@H]2O[C@H](CO)[C@@H](O)[C@H](O)[C@H]2O[C@H]2C[C@](C)(N)[C@H](O)[C@H](C)O2)Oc2ccc(cc2Cl)[C@H]1O` [VANCOMYCIN], for which the LCK in the data set with Staphylococcus aureus [20] stood at 1.18. In addition, the MIC with Staphylococcus aureus [9] worked out at 0.54 µM (≈ 0.783 µg/mL); with Staphylococcus aureus [15], 1.08 µM (≈ 1.57 µg/mL); in the data set with Staphylococcus aureus [17], 1.08 µM (≈ 1.57 µg/mL).
